ChEMBL document CHEMBL1140217, “Prolyl oligopeptidase inhibition by N-acyl-pro-pyrrolidine-type molecules” (J Med Chem, 2008)

Each compound was assayed against T1, Prolyl endopeptidase (Rattus norvegicus, UniProt O70196) (assay: Inhibition of POP in Sprague-Dawley rat brain homogenates).
T1 sequence (O70196 whole entry): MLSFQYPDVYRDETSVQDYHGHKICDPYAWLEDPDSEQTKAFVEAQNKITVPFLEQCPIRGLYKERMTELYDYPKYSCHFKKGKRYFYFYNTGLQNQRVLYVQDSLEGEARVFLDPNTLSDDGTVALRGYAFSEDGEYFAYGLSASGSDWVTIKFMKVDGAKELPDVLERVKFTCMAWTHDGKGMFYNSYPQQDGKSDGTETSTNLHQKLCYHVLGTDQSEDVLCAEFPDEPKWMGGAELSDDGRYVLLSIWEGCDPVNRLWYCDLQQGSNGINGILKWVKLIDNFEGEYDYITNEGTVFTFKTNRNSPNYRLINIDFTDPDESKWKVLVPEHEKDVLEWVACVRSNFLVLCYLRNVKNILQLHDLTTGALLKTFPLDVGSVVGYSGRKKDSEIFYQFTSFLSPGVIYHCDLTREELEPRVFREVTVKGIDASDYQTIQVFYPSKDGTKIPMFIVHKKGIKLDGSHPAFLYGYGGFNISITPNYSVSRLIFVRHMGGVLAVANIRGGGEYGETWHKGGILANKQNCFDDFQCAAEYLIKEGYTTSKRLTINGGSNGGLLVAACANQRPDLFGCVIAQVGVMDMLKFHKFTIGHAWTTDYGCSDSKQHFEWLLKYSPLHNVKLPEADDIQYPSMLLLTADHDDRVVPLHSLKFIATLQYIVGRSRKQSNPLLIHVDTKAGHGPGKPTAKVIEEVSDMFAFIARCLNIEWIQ
Assay type: tissue-based
In the case of CCCCCCCC(=O)N1CCC[C@H]1C(=O)N1CCCC1, the IC50 is reported as 48 nM.
For O=C([C@@H]1CCCN1C(=O)CCCn1c(=O)c(-c2ccccc2)nc2ccccc21)N1CCCC1, the IC50 was 59 nM.
With O=C([C@@H]1CCCN1C(=O)CCCN1C(=O)c2ccccc2C1=O)N1CCCC1 the IC50 was 40 nM.
O=C([C@@H]1CCCN1C(=O)CCN1C(=O)c2ccccc2C1=O)N1CCCC1 gave an IC50 of 3 nM.
